Experimental data published in patent US20110111515A1, “REAGENT FOR MEASUREMENT OF REACTIVE OXYGEN” (THE UNIVERSITY OF TOKYO, priority 2008, published 2011).

Experiments:
Type in all cases: physicochemical
[1] = Change of absorbance at maximum absorption wavelength after reaction with superoxide anion (Example 2); conditions: 10 μM dye in 0.1 M phosphate buffer; xanthine oxidase 4 mU, xanthine 33 μM; FIG. 2
Description: (§1) Cy5, Cy7, Compound 2 (cyanine compound constituting the second cyanine compound residue) and Compound 3 (cyanine compound constituting the first cyanine compound residue), the latter two of which were obtained above, were reacted with hydroxyl radical, peroxynitrite, hypochlorite ion, and superoxide anion, and change of absorbance at the maximum absorption wavelength was measured. For the measurement, 10 μM solutions of Cy5, Cy7, Compound 2, and Compound 3 in 0.1 M phosphate buffer were prepared, and the measurement was performed with the prepared solutions under the following conditions.
(§2) Xanthine oxidase and xanthine were added to final concentrations of 4 mU and 33 μM, respectively.
(§3) In the graph, the test results for those reactive oxygen species are indicated in the order of Cy5, Compound 2, Cy7, and Compound 3 from the left.

[2] = Change of absorbance at maximum absorption wavelength after reaction with reactive oxygen species (Example 2); conditions: 10 μM dye in 0.1 M phosphate buffer; all reactive oxygen species (hydroxyl radical, peroxynitrite, hypochlorite ion, superoxide anion); FIG. 2
Description: as §1
Hydrogen peroxide and iron(II) perchlorate were added to final concentrations of 1 mM and 50 μM, respectively.
Peroxynitrite was added to a final concentration of 10 μM.
Hypochlorite ions were added to a final concentration of 10 μM.
as §2, §3

[3] = Oxidation potential (Ep) of cyanine dyes, saturated calomel electrode as reference; conditions: saturated calomel electrode (SCE) as reference electrode

Which “Decrease of absorbance at maximum absorption wavelength for superoxide anion” value [1] does the source give for `CC1(C)C(/C=C/C=C/C=C2/N(CCC(=O)O)c3ccc(S(=O)(=O)O)cc3C2(C)C)=[N+](CCC(=O)O)c2ccc(S(=O)(=O)O)cc21` [Compound 2] here?
Its value is “no decrease of absorbance”.

What about the “Decrease of absorbance at maximum absorption wavelength upon addition of reactive oxygen species” value [2] of the same molecule?
The value was “the smallest decrease of absorbance”.

What about the Ep [3] of the same molecule?
The Ep was 0.658 V vs SCE.

What does the source list for `CN1/C(=C/C=C2\CCCC(/C=C/C3=[N+](C)c4ccccc4C3(C)C)=C2SCCC(=O)O)C(C)(C)c2ccccc21` [Compound 3]?
Decrease of absorbance at maximum absorption wavelength upon addition of reactive oxygen species [2]: larger decrease of absorbance than did Cy7; Ep [3]: 0.333 V vs SCE

Which “Decrease of absorbance at maximum absorption wavelength upon addition of reactive oxygen species” value [2] does the source give for `CCN1C(=CC=CC=CC=CC2=[N+](CCCCCC(=O)O)c3ccc(S(=O)(=O)O)cc3C2(C)C)C(C)(C)c2cc(S(=O)(=O)[O-])ccc21` [Cy7, reference compound] here?
The value was “larger decrease of absorbance than did Cy5”.

What about the Ep [3] of the same molecule?
Its Ep is 0.476 V vs SCE.

With Cy5 [reference compound] as the molecule, how does the Ep [3] read?
The Ep was 0.516 V vs SCE.
